Results published in patent US5322928A, “Diapause hormone isolated from silkworm exhibiting improved diapause activity” (Shionogi Seiyaku Kabushiki Kaisha, priority 1991, dated 1994).
Where no end group is shown, it is not given here.

Tested on: silkworm non-diapause strain (N4 line) pupa
Experiment: Assay of bioactivity: specimen injected into 4 days-age pupa of non-diapause strain, percentage of laid eggs that diapause
Format: in vivo, silkworm (Bombyx mori)
Conditions: qualitative
Experimental: The hormonal activity was confirmed by the following method: the specimen is injected into the 4 days-age pupa of non-diapause strain. After the pupa transforms into a imago, copulates, and lays eggs, it is investigated whether or not the eggs diapause without embryogenesis. […] In case that the specimen has the hormonal activity, the color of the eggs becomes blackish-brown which is not observed in non-diapausing eggs. […] The hormonal activity is determined by calculating what percentage of the eggs laid by one imago diapauses. One diapause hormone unit is the amount of the hormone which make 50% of the laid eggs diapause. In this invention, the isolated diapause hormone was 0.1 ng/unit.

Substance | diapause hormone activity (hormonal activity in bioassay)
TDMKDESDRGAHSERGALCFGPRL-NH2 [amino acid 19 is Cys] | have diapause activity
TDMKDESDRGAHSERGALWFGPRL-NH2 [amino acid 19 is Trp] | have diapause activity
